Reference: ChEMBL document CHEMBL3400089, “Studies on antimicrobial effects of four ligands and their transition metal complexes with 8-mercaptoquinoline and pyridine terminal groups” (2015)
In brackets after ≈: the same amount, converted by molar mass. Where a name gives a salt, the structure may show the parent alone.

Tests used:
Format in all cases: functional
[1] = tested on: Sporosarcina ureae; experiment: Antimicrobial activity against Sarcina ureae after 24 hrs by two fold serial microdilution method
[2] = tested on: Staphylococcus aureus; experiment: Antimicrobial activity against Staphylococcus aureus ATCC 27154 after 24 hrs by two fold serial microdilution method; details: ATCC 27154, 24 h
[3] = tested on: Pseudomonas aeruginosa; experiment: Antimicrobial activity against Pseudomonas aeruginosa after 24 hrs by two fold serial microdilution method
[4] = tested on: Escherichia coli; experiment: Antimicrobial activity against Escherichia coli ATCC 25922 after 24 hrs by two fold serial microdilution method; details: ATCC 25922, 24 h
[5] = tested on: Saccharomyces cerevisiae; experiment: Antimicrobial activity against Saccharomyces cerevisiae after 48 hrs by two fold serial microdilution method
[6] = tested on: Fusarium oxysporum f. sp. cubense; experiment: Antimicrobial activity against Fusarium oxysporum f. sp. cubense after 48 hrs by two fold serial microdilution method
[7] = tested on: Aspergillus niger; experiment: Antimicrobial activity against Aspergillus niger after 48 hrs by two fold serial microdilution method

| Molecule | MIC [1] | MIC [2] | MIC [3] | MIC [4] | MIC [5] | MIC [6] | MIC [7] |
| --- | --- | --- | --- | --- | --- | --- | --- |
| c1cc(CSc2cccc3cccnc23)nc(CSc2cccc3cccnc23)c1 | > 117 µM | > 117 µM | > 117 µM | 7.35 µM (≈ 3.13 µg/mL) | – | – | – |
| c1cnc2c(SCc3ccncc3)cccc2c1 | > 198 µM | > 198 µM | > 198 µM | 24.8 µM (≈ 6.26 µg/mL) | – | – | – |
| c1cncc(CSc2cccc3cccnc23)c1 | > 198 µM | > 198 µM | > 198 µM | 99.1 µM (≈ 25 µg/mL) | > 495 µM | > 495 µM | > 495 µM |
| CN[C@@H]1[C@H](O[C@H]2[C@H](O[C@H]3[C@H](O)[C@@H](O)[C@H](N=C(N)N)[C@@H](O)[C@@H]3N=C(N)N)O[C@@H](C)[C@]2(O)C=O)O[C@@H](CO)[C@H](O)[C@H]1O [STREPTOMYCIN SULFATE] | 2.14 µM | 1.07 µM | 1.07 µM | 2.14 µM | – | – | – |
| CC1(C)S[C@@H]2[C@H](NC(=O)[C@H](N)c3ccccc3)C(=O)N2[C@H]1C(=O)O [AMPICILLIN] | 17.4 µM (≈ 6.08 µg/mL) | 69.4 µM (≈ 24.2 µg/mL) | 17.4 µM (≈ 6.08 µg/mL) | 34.7 µM (≈ 12.1 µg/mL) | – | – | – |
| c1ccc(CSc2cccc3cccnc23)nc1 | > 198 µM | > 198 µM | > 198 µM | 49.5 µM (≈ 12.5 µg/mL) | – | – | – |
| NYSTATIN | – | – | – | – | 14.1 µM | 28.2 µM | 14.1 µM |
